In ChEMBL document CHEMBL1138708, “Synthesis of analogs of (1,4)-3- and 5-imino oxazepane, thiazepane, and diazepane as inhibitors of nitric oxide synthases” (Bioorg Med Chem Lett, 2004) one finds IC50 and Selectivity data, which are given here for 19 molecules.

In experiment [1] the target is Nitric oxide synthase 1 (Homo sapiens, UniProt P29475). Briefly: Inhibitory concentration against Neuronal nitric oxide synthase.
The target in experiment [2] is T1, Nitric oxide synthase 3 (Homo sapiens, UniProt P29474).
T1 sequence (P29474 whole entry): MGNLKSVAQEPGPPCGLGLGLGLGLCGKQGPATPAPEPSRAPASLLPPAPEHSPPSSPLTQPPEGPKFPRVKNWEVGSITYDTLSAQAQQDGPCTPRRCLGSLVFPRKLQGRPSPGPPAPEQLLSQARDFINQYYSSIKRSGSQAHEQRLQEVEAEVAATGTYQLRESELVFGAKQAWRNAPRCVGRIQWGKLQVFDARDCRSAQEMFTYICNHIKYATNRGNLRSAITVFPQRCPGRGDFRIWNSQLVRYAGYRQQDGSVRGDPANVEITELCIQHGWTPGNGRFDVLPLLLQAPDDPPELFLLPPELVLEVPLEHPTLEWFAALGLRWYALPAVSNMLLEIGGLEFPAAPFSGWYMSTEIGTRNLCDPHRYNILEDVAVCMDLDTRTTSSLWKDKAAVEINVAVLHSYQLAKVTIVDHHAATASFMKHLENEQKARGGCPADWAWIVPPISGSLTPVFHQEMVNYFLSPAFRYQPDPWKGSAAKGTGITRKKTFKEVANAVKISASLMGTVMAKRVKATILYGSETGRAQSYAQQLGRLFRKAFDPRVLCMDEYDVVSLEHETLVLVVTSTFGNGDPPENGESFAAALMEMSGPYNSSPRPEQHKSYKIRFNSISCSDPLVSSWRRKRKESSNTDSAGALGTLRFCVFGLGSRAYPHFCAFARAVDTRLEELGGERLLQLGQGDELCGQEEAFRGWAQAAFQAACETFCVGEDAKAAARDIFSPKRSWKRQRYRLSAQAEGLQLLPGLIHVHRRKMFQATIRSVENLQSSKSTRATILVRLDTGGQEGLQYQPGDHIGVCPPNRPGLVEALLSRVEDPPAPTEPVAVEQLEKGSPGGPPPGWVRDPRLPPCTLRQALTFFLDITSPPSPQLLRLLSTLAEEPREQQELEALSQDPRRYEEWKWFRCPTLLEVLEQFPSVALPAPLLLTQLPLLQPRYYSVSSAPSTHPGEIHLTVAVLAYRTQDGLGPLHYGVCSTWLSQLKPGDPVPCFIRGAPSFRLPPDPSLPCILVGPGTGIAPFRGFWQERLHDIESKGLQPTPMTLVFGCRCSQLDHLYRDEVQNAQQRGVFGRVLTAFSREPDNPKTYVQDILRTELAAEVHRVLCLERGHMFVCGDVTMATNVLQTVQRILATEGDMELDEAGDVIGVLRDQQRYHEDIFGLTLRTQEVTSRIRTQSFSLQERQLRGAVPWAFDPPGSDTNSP
Put plainly: Inhibitory concentration against Endothelial nitric oxide synthase.

The target of experiment [3] is Nitric oxide synthase (inducible and endothelial) (Homo sapiens) (UniProt P35228+P29474). Briefly: Ratio of inhibitory concentration against Endothelial nitric oxide synthase to Inducible nitric oxide synthase. Type of experiment: protein assay.
The target in experiment [4] is Nitric oxide synthase, inducible (Homo sapiens, UniProt P35228). Put plainly: Inhibitory concentration against Inducible nitric oxide synthase.
Chain of Nitric oxide synthase, inducible (P35228 whole entry): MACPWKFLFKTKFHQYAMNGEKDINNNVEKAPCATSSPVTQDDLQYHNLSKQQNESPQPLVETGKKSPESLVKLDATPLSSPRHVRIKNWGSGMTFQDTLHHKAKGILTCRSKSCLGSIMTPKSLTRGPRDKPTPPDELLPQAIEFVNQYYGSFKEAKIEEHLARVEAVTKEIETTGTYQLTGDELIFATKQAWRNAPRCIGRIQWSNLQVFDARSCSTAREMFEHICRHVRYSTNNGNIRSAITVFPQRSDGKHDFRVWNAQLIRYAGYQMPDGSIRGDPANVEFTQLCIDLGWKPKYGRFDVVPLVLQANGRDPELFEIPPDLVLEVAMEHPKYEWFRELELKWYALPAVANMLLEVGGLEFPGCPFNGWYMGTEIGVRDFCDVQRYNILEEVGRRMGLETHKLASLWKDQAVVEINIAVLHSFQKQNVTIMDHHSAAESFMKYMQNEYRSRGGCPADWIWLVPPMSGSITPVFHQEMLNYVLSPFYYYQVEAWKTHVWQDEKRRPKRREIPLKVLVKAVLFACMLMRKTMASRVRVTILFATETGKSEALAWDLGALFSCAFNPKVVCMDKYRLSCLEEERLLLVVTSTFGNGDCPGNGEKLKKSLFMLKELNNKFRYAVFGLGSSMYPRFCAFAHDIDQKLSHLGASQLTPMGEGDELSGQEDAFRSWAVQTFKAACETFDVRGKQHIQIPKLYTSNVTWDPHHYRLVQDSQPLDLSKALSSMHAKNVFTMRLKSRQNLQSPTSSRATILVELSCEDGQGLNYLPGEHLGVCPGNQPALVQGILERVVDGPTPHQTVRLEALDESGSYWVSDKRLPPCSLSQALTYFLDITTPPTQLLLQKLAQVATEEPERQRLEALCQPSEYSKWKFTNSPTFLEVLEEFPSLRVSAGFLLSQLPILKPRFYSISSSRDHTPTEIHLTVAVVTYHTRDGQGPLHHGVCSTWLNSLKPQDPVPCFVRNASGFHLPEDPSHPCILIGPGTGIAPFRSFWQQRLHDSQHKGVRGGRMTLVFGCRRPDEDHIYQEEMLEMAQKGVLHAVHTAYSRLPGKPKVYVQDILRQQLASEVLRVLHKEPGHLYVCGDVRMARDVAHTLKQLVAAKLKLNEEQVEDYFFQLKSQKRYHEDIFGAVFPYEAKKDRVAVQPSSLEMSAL

Chain of Nitric oxide synthase 1 (P29475 whole entry): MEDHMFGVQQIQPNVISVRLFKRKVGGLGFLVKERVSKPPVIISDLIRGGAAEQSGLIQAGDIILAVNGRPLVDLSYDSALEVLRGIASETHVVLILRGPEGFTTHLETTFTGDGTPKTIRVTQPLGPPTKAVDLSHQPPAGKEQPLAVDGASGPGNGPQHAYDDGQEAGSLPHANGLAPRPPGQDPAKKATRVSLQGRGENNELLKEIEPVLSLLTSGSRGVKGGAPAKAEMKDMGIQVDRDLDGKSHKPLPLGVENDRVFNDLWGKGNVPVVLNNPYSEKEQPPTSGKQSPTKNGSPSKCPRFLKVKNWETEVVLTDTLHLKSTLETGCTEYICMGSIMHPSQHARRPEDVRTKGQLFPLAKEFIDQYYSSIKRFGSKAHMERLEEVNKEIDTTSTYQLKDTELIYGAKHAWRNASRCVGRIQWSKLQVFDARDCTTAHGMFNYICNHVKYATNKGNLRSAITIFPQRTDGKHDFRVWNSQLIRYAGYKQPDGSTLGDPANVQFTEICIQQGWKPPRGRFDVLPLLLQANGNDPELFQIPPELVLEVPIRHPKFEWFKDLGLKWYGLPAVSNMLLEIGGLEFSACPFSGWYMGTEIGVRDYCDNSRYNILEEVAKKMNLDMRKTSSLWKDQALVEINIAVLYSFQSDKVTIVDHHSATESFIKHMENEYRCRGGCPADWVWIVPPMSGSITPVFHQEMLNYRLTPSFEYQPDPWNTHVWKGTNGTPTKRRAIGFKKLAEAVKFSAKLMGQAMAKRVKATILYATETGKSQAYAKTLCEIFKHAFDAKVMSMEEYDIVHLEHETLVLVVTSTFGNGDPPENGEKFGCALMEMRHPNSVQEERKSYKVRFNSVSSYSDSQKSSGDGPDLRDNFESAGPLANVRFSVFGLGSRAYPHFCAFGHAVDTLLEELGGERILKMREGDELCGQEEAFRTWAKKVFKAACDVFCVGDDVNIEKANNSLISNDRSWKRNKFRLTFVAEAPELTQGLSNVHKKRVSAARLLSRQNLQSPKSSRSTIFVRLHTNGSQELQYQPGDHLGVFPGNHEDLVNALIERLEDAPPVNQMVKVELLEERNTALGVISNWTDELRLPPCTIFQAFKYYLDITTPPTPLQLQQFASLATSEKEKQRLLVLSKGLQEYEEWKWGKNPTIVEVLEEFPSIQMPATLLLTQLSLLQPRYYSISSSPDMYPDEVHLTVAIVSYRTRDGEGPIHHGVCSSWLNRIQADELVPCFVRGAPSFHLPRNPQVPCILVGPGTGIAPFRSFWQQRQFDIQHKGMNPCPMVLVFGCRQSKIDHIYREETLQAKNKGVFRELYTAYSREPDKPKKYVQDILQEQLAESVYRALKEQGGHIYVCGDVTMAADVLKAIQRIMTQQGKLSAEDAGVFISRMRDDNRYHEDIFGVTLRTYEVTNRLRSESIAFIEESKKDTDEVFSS

What is called IC50 is the concentration that gives 50% inhibition. High values mean a need for much substance, low ones inhibition by little substance. With `CCC1CSCCC(N)=N1` (stereo not drawn), the IC50 in experiment [1] was found to be 590 nM; in experiment [2] it was 1100 nM; in experiment [4] it was 310 nM. The Selectivity in experiment [3] turned out to be 3.7.

Turning to `CC1CSCCC(N)=N1` (stereo not drawn), the IC50 in experiment [1] was found to be 1800 nM; in experiment [2], 5000 nM; in experiment [4] it was 810 nM. Besides, the Selectivity in experiment [3] is 6.1.

Regarding `NC1=NC(CO)CSCC1` (stereo not drawn), the IC50 came to 2700 nM in experiment [1], 6000 nM in experiment [2] and 1100 nM in experiment [4]. The Selectivity in experiment [3] came to 5.3.

Consider `CC(C)CC1CSCCC(N)=N1` (stereo not drawn), for which the values for the half-maximal inhibitory concentration (IC50) in experiment [1], in experiment [2] and in experiment [4] were 1900 nM, 60000 nM and 320 nM, respectively. The Selectivity in experiment [3] turned out to be 186.

Consider `NC1=NCCNCC1`, for which the IC50 in experiment [1], in experiment [2] and in experiment [4] was above 50000 nM each time.

Turning to `NC1=NCCSCC1`, the IC50 amounted to 4300 nM in experiment [1], 13400 nM in experiment [2] and 1400 nM in experiment [4]. The Selectivity in experiment [3] was found to be 9.5.

In the case of `CCC[C@@H]1CSCCC(N)=N1`, in experiment [3], the Selectivity worked out at 42.

As for `CC(=N)NCCCC[C@H](N)C(=O)O`, the Selectivity in experiment [3] came out at 3.7.

For the molecule `CCC[C@@H]1CSCCC(=N)N1`, the half-maximal inhibitory concentration (IC50) came out at 7100 nM in experiment [1], 50000 nM in experiment [2] and 1200 nM in experiment [4].

Turning to `NC1=NCCOCC1`, the values for the 50% inhibitory concentration (IC50) in experiment [1], in experiment [2] and in experiment [4] were 8700 nM, 25000 nM and 11800 nM, respectively. Further, the Selectivity in experiment [3] came out at 2.1.

Consider `CC1CN=C(N)CCS1` (stereo not drawn), for which the IC50 in experiment [1] was determined as 830 nM; in experiment [2] it was 4100 nM; in experiment [4], 3500 nM. Moreover, the Selectivity in experiment [3] came out at 1.1.

As to `CCCC1CSCCC(N)=N1` (stereo not drawn), the half-maximal inhibitory concentration (IC50) in experiment [1] was 2800 nM; in experiment [2] it was 50000 nM; in experiment [4], 290 nM. Further, the Selectivity in experiment [3] came to 172.

Consider `CCC[C@H]1CSCCC(N)=N1`, for which the results for the half-maximal inhibitory concentration (IC50) in experiment [1], in experiment [2] and in experiment [4] were 440 nM, 1000 nM and 190 nM, respectively. In experiment [3], the Selectivity worked out at 5.2.

On to `CC1CC(N)=NCCS1` (stereo not drawn), for which the half-inhibitory concentration (IC50) in experiment [1] is 1000 nM; in experiment [2], 5000 nM; in experiment [4], 3000 nM. Further, the Selectivity in experiment [3] is 1.6.

As for `NC1=NCCCSC1`, the figures for the IC50 in experiment [1], in experiment [2] and in experiment [4] were 2800 nM, 10500 nM and 1200 nM, respectively. Also, in experiment [3], the Selectivity came out at 8.8.

For `CC1CC(N)=NC2CCCCC2S1` (stereo not drawn), the IC50 in experiment [1], in experiment [2] and in experiment [4] was above 50000 nM in each case.

For `CCCCC1CSCCC(N)=N1` (stereo not drawn), the IC50 in experiment [1] stood at 1200 nM; in experiment [2], 77000 nM; in experiment [4], 500 nM. The Selectivity in experiment [3] was determined as 164.

As to `NC1=NCCCOC1`, the IC50 in experiment [2] worked out at 450 nM.

Regarding `CC1CSCCN=C1N` (stereo not drawn), the IC50 in experiment [1], in experiment [2] and in experiment [4] was above 50000 nM each time.
